{"source": "patent US20230143604A1", "about": "“QW DOSING OF GIP RECEPTOR AGONIST PEPTIDE COMPOUNDS AND USES THEREOF” (TAKEDA PHARMACEUTICAL COMPANY LIMITED, priority 2020, published 2023)", "note": "Starred links: 1 amine or outer side, 2 acyl side, 3 side chain; linkers in the order of their positions; H or OH if unused. Non-standard residues stand in square brackets, D forms with d. Residues, ends and D or L forms follow the SMILES beside them. Groups on a side chain read outwards from the residue. *: point of attachment. C18 diacid = O=C(O)CCCCCCCCCCCCCCCCC(=O)*; C17 diacid = O=C(O)CCCCCCCCCCCCCCCC(=O)*; γGlu = O=C(O)[C@H](CCC(=O)[*:2])N[*:1]; NMeY = CN[C@@H](Cc1ccc(O)cc1)C(=O)O; AEEA = NCCOCCOCC(=O)O; Aib = CC(C)(N)C(=O)O"}
{"assay": "physchem", "details": "pH 7.4, aqueous buffer", "procedure,_shortened": "(§1)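 Solubility at pH 7.4 determined by stepwise addition of 200 mM phosphate buffer in 100 μL increments to 3 mg peptide, mixing briefly each time, until no insoluble material remained, then measured by liquid chromatography.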", "units": {"solubility": "µg/mL"}}
{"smiles": "CC[C@H](C)[C@H](NC(=O)[C@H](Cc1ccccc1)NC(=O)[C@@H](NC(=O)CNC(=O)[C@H](CCC(=O)O)NC(=O)C(C)(C)NC(=O)[C@H](Cc1ccc(O)cc1)NC)[C@@H](C)O)C(=O)N[C@@H](CO)C(=O)N[C@@H](CC(=O)O)C(=O)N[C@@H](Cc1ccc(O)cc1)C(=O)N[C@@H](CO)C(=O)N[C@H](C(=O)NC(C)(C)C(=O)N[C@@H](CCCCNC(=O)CNC(=O)CNC(=O)CNC(=O)CNC(=O)CNC(=O)CC[C@H](NC(=O)CC[C@H](NC(=O)CCCCCCCCCCCCCCCC(=O)O)C(=O)O)C(=O)O)C(=O)N[C@@H](CC(=O)O)C(=O)N[C@@H](CCCNC(=N)N)C(=O)NC(C)(C)C(=O)N[C@@H](C)C(=O)N[C@@H](CCC(N)=O)C(=O)NC(C)(C)C(=O)N[C@@H](CC(N)=O)C(=O)N[C@@H](Cc1ccccc1)C(=O)N[C@H](C(=O)N[C@@H](CC(N)=O)C(=O)N[C@@H](Cc1c[nH]c2ccccc12)C(=O)N[C@@H](CC(C)C)C(=O)N[C@@H](CC(C)C)C(=O)N[C@@H](C)C(=O)N[C@@H](CCC(N)=O)C(=O)N[C@@H](CCCNC(=N)N)C(N)=O)C(C)C)[C@@H](C)CC", "note": "[Compound 264]", "solubility": "< 6000"}
{"smiles": "CC[C@H](C)[C@H](NC(=O)[C@H](Cc1ccccc1)NC(=O)[C@@H](NC(=O)CNC(=O)[C@H](CCC(=O)O)NC(=O)C(C)(C)NC(=O)[C@H](Cc1ccc(O)cc1)NC)[C@@H](C)O)C(=O)N[C@@H](CO)C(=O)N[C@@H](CC(=O)O)C(=O)N[C@@H](Cc1ccc(O)cc1)C(=O)N[C@@H](CO)C(=O)N[C@H](C(=O)NC(C)(C)C(=O)N[C@@H](CCCCNC(=O)CNC(=O)CNC(=O)CNC(=O)CNC(=O)CNC(=O)CC[C@H](NC(=O)CCCCCCCCCCCCCCCC(=O)O)C(=O)O)C(=O)N[C@@H](CC(=O)O)C(=O)N[C@@H](CCCNC(=N)N)C(=O)NC(C)(C)C(=O)N[C@@H](C)C(=O)N[C@@H](CCC(N)=O)C(=O)NC(C)(C)C(=O)N[C@@H](CC(=O)O)C(=O)N[C@@H](Cc1ccccc1)C(=O)N[C@H](C(=O)N[C@@H](CC(N)=O)C(=O)N[C@@H](Cc1c[nH]c2ccccc12)C(=O)N[C@@H](CC(C)C)C(=O)N[C@@H](CC(C)C)C(=O)N[C@@H](C)C(=O)N[C@@H](CCC(N)=O)C(=O)N[C@@H](CCCNC(=N)N)C(N)=O)C(C)C)[C@@H](C)CC", "note": "[Compound 265]", "solubility": "≥ 7500"}
{"smiles": "CC[C@H](C)[C@H](NC(=O)[C@H](Cc1ccccc1)NC(=O)[C@@H](NC(=O)CNC(=O)[C@H](CCC(=O)O)NC(=O)C(C)(C)NC(=O)[C@H](Cc1ccc(O)cc1)NC)[C@@H](C)O)C(=O)N[C@@H](CO)C(=O)N[C@@H](CC(=O)O)C(=O)N[C@@H](Cc1ccc(O)cc1)C(=O)N[C@@H](CO)C(=O)N[C@H](C(=O)NC(C)(C)C(=O)N[C@@H](CC(C)C)C(=O)N[C@@H](CC(=O)O)C(=O)N[C@@H](CCCNC(=N)N)C(=O)NC(C)(C)C(=O)N[C@@H](C)C(=O)N[C@@H](CCC(N)=O)C(=O)NC(C)(C)C(=O)N[C@@H](CCCCNC(=O)COCCOCCNC(=O)COCCOCCNC(=O)CC[C@H](NC(=O)CC[C@H](NC(=O)CCCCCCCCCCCCCCCCC(=O)O)C(=O)O)C(=O)O)C(=O)N[C@@H](Cc1ccccc1)C(=O)N[C@H](C(=O)N[C@@H](CC(N)=O)C(=O)N[C@@H](Cc1c[nH]c2ccccc12)C(=O)N[C@@H](CC(C)C)C(=O)N[C@@H](CC(C)C)C(=O)N[C@@H](C)C(=O)N[C@@H](CCC(N)=O)C(=O)N[C@@H](CCCNC(=N)N)C(N)=O)C(C)C)[C@@H](C)CC", "note": "[Compound 267] (H-[NMeY][Aib]EGTFISDYSI[Aib]LDR[Aib]AQ[Aib]K([AEEA-AEEA-γGlu-γGlu-C18 diacid])FVNWLLAQR-NH2)", "solubility": "< 6000"}
{"smiles": "CC[C@H](C)[C@H](NC(=O)[C@H](CO)NC(=O)[C@H](Cc1ccc(O)cc1)NC(=O)[C@H](CC(=O)O)NC(=O)[C@H](CO)NC(=O)[C@@H](NC(=O)[C@H](Cc1ccccc1)NC(=O)[C@@H](NC(=O)CNC(=O)[C@H](CCC(=O)O)NC(=O)C(C)(C)NC(=O)[C@H](Cc1ccc(O)cc1)NC)[C@@H](C)O)[C@@H](C)CC)C(=O)N[C@@H](C)C(=O)N[C@@H](CC(C)C)C(=O)N[C@@H](CC(=O)O)C(=O)N[C@@H](CCCNC(=N)N)C(=O)NC(C)(C)C(=O)N[C@@H](C)C(=O)N[C@@H](CCC(N)=O)C(=O)NC(C)(C)C(=O)N[C@@H](CCCCNC(=O)COCCOCCNC(=O)COCCOCCNC(=O)CC[C@H](NC(=O)CC[C@H](NC(=O)CCCCCCCCCCCCCCCCC(=O)O)C(=O)O)C(=O)O)C(=O)N[C@@H](Cc1ccccc1)C(=O)N[C@H](C(=O)N[C@@H](CC(N)=O)C(=O)N[C@@H](Cc1c[nH]c2ccccc12)C(=O)N[C@@H](CC(C)C)C(=O)N[C@@H](CC(C)C)C(=O)N[C@@H](C)C(=O)N[C@@H](CCC(N)=O)C(=O)N[C@@H](CCCNC(=N)N)C(N)=O)C(C)C", "note": "[Compound 269] (H-[NMeY][Aib]EGTFISDYSIALDR[Aib]AQ[Aib]K([AEEA-AEEA-γGlu-γGlu-C18 diacid])FVNWLLAQR-NH2)", "solubility": "≥ 7500"}
{"assay": "Solubility in phosphate buffer pH 7.4", "details": "pH 7.4, aqueous buffer, pH 7.4 Phosphate Buffer - Solubility, 200 mM Phosphate buffer pH 7.4", "procedure,_shortened": "as §1", "units": {"solubility": "µg/mL"}}
{"smiles": "CC[C@H](C)[C@H](NC(=O)[C@H](CO)NC(=O)[C@H](Cc1ccc(O)cc1)NC(=O)[C@H](CC(=O)O)NC(=O)[C@H](CO)NC(=O)[C@@H](NC(=O)[C@H](Cc1ccccc1)NC(=O)[C@@H](NC(=O)CNC(=O)[C@H](CCC(=O)O)NC(=O)C(C)(C)NC(=O)[C@H](Cc1ccc(O)cc1)NC)[C@@H](C)O)[C@@H](C)CC)C(=O)N[C@@H](C)C(=O)N[C@@H](CC(C)C)C(=O)N[C@@H](CC(=O)O)C(=O)N[C@@H](CCCNC(=N)N)C(=O)N[C@@H](CCCCNC(=O)COCCOCCNC(=O)COCCOCCNC(=O)CC[C@H](NC(=O)CCCCCCCCCCCCCCCC(=O)O)C(=O)O)C(=O)N[C@@H](C)C(=O)N[C@@H](CCC(N)=O)C(=O)NC(C)(C)C(=O)N[C@@H](CC(N)=O)C(=O)N[C@@H](Cc1ccccc1)C(=O)N[C@H](C(=O)N[C@@H](CC(N)=O)C(=O)N[C@@H](Cc1c[nH]c2ccccc12)C(=O)N[C@@H](CC(C)C)C(=O)N[C@@H](CC(C)C)C(=O)N[C@@H](C)C(=O)N[C@@H](CCC(N)=O)C(=O)N[C@@H](CCCNC(=N)N)C(=O)N1CCC[C@H]1C(=O)N[C@@H](CO)C(=O)N[C@@H](CO)C(=O)NCC(=O)N[C@@H](C)C(=O)N1CCC[C@H]1C(=O)N1CCC[C@H]1C(=O)N1CCC[C@H]1C(=O)N[C@@H](CO)C(N)=O)C(C)C", "note": "[Compound 266] (H-[NMeY][Aib]EGTFISDYSIALDRK([AEEA-AEEA-γGlu-C17 diacid])AQ[Aib]NFVNWLLAQRPSSGAPPPS-NH2)", "solubility": "< 6000"}
{"smiles": "CC[C@H](C)[C@H](NC(=O)[C@H](CO)NC(=O)[C@H](Cc1ccc(O)cc1)NC(=O)[C@H](CC(=O)O)NC(=O)[C@H](CO)NC(=O)[C@@H](NC(=O)[C@H](Cc1ccccc1)NC(=O)[C@@H](NC(=O)CNC(=O)[C@H](CCC(=O)O)NC(=O)C(C)(C)NC(=O)[C@H](Cc1ccc(O)cc1)NC)[C@@H](C)O)[C@@H](C)CC)C(=O)N[C@@H](C)C(=O)N[C@@H](CC(C)C)C(=O)N[C@@H](CC(=O)O)C(=O)N[C@@H](CCCNC(=N)N)C(=O)NC(C)(C)C(=O)N[C@@H](CCCCNC(=O)COCCOCCNC(=O)COCCOCCNC(=O)CC[C@H](NC(=O)CCCCCCCCCCCCCCCC(=O)O)C(=O)O)C(=O)N[C@@H](CCC(N)=O)C(=O)NC(C)(C)C(=O)N[C@@H](CC(N)=O)C(=O)N[C@@H](Cc1ccccc1)C(=O)N[C@H](C(=O)N[C@@H](CC(N)=O)C(=O)N[C@@H](Cc1c[nH]c2ccccc12)C(=O)N[C@@H](CC(C)C)C(=O)N[C@@H](CC(C)C)C(=O)N[C@@H](C)C(=O)N[C@@H](CCC(N)=O)C(=O)N[C@@H](CO)C(=O)N1CCC[C@H]1C(=O)N[C@@H](CO)C(=O)N[C@@H](CO)C(=O)NCC(=O)N[C@@H](C)C(=O)N1CCC[C@H]1C(=O)N1CCC[C@H]1C(=O)N1CCC[C@H]1C(=O)N[C@@H](CO)C(N)=O)C(C)C", "note": "[Compound 268] (H-[NMeY][Aib]EGTFISDYSIALDR[Aib]K([AEEA-AEEA-γGlu-C17 diacid])Q[Aib]NFVNWLLAQSPSSGAPPPS-NH2)", "solubility": "≥ 10000"}
{"smiles": "CC[C@H](C)[C@H](NC(=O)[C@H](Cc1ccccc1)NC(=O)[C@@H](NC(=O)CNC(=O)[C@H](CCC(=O)O)NC(=O)C(C)(C)NC(=O)[C@H](Cc1ccc(O)cc1)NC)[C@@H](C)O)C(=O)N[C@@H](CO)C(=O)N[C@@H](CC(=O)O)C(=O)N[C@@H](Cc1ccc(O)cc1)C(=O)N[C@@H](CO)C(=O)N[C@H](C(=O)NC(C)(C)C(=O)N[C@@H](CC(C)C)C(=O)N[C@@H](CC(=O)O)C(=O)N[C@@H](CCCNC(=N)N)C(=O)N[C@@H](CCCCNC(=O)COCCOCCNC(=O)COCCOCCNC(=O)CC[C@H](NC(=O)CC[C@H](NC(=O)CCCCCCCCCCCCCCCC(=O)O)C(=O)O)C(=O)O)C(=O)N[C@@H](C)C(=O)N[C@@H](CCC(N)=O)C(=O)NC(C)(C)C(=O)N[C@@H](CC(N)=O)C(=O)N[C@@H](Cc1ccccc1)C(=O)N[C@H](C(=O)N[C@@H](CC(N)=O)C(=O)N[C@@H](Cc1c[nH]c2ccccc12)C(=O)N[C@@H](CC(C)C)C(=O)N[C@@H](CC(C)C)C(=O)N[C@@H](C)C(=O)N[C@@H](CCC(N)=O)C(=O)N[C@@H](CO)C(=O)N1CCC[C@H]1C(=O)N[C@@H](CO)C(=O)N[C@@H](CO)C(=O)NCC(=O)N[C@@H](C)C(=O)N1CCC[C@H]1C(=O)N1CCC[C@H]1C(=O)N1CCC[C@H]1C(=O)N[C@@H](CO)C(N)=O)C(C)C)[C@@H](C)CC", "note": "[Compound 270] (H-[NMeY][Aib]EGTFISDYSI[Aib]LDRK([AEEA-AEEA-γGlu-γGlu-C17 diacid])AQ[Aib]NFVNWLLAQSPSSGAPPPS-NH2)", "solubility": "≥ 7500"}
